Laboratory results reported in PubChem BioAssay AID2823 (Broad Institute, 2010).
The source made the active and inactive calls. No rule for the calls is given here.

Biological target: RanGTP-importin-beta complex (human Ran / KPNB1)
Experiment: disruptors of RanGTP/KPNB1 binding – biochemical, FRET, CFP/YFP, cell-free homogeneous, confirmation (AID 2823)
Details: CFP-Ran/YFP-importin-beta FRET ratio

CCCCc1cc(-c2n[nH]c(=S)o2)c2ccccc2n1
IC50: > 50 µM (inactive)

CN(C)S(=O)(=O)c1ccc(N2CCCC2)c(C(=O)NC(c2ccccc2)c2ccccc2)c1
IC50: > 50 µM (inactive)

CCCn1c(O)c(C=Nc2ccccc2)sc1=S
IC50: 39.4 µM

Clc1ccc(-c2nnc(SCc3nc4ccccc4[nH]3)o2)c(Cl)c1
IC50: > 50 µM (inactive)

Cc1ccccc1-n1cnc2cc(NCc3cccs3)ccc21
IC50: > 50 µM (inactive)

N=C(N)SCc1nc2ccccc2c(=O)n1-c1ccccc1Cl
IC50: > 50 µM (inactive)

O=C(CCN1C(=O)COc2ccccc21)N1CCCCC1
IC50: > 50 µM (inactive)

CC(=O)Nc1cccc(C(=O)N/N=C/c2ccc(F)cc2)c1
IC50: > 50 µM (inactive)

COc1ccc(NC(=O)/C(C#N)=C\c2ccc(N3CCOCC3)o2)cc1
IC50: > 50 µM (inactive)

N#CCCN(C(=O)Nc1ccc(Cl)cc1)c1ccccc1
IC50: > 50 µM (inactive)

COc1ccc(CNC(=O)C2CC(=O)N(C3CCCCC3)C2)cc1 (stereo unspecified)
IC50: > 50 µM (inactive)

CCOC(=O)c1oc2c(CN3CCN(CCO)CC3)c(O)c(CC)cc2c(=O)c1-c1nc2ccccc2s1
IC50: 18.4 µM

CCOC(=O)c1sc(NC(=O)Nc2ccc(F)cc2)nc1C
IC50: > 50 µM (inactive)

CCc1cc(=O)oc2c(CNCc3ccc(OC)cc3OC)c(O)c(Cl)cc12
IC50: 14.4 µM

CCN(CC)Cc1c(O)c(Cl)cc2c(C)c(C)c(=O)oc12
IC50: 21.1 µM

O=c1[nH]c2cc(Br)cnc2nc1/C=C(\O)c1ccc(F)cc1
IC50: > 50 µM (inactive)

Cn1nnnc1SCC(=O)Nc1nn(-c2ccccc2)nc1C(N)=O
IC50: > 50 µM (inactive)

CCc1ccc(N2C(=O)NC(=O)/C(=C\c3cc(C)n(-c4cc(C(=O)O)cc(C(=O)O)c4)c3C)C2=O)cc1
IC50: > 50 µM (inactive)

CC1C2(C)OC(=N)C(C#N)(C(C)O2)C1(C#N)C#N (stereo unspecified)
IC50: 44.2 µM

COc1ccc(C(=O)/C=C(\C)NCc2ccc3c(c2)OCO3)cc1
IC50: > 50 µM (inactive)

C/C(=C\C(=O)C(F)(F)F)Nc1ccc(C(F)(F)F)cc1
IC50: > 50 µM (inactive)

CCC(C)OC(=O)C[N+](C)(C)CCOC1CC2CCC1(C)C2(C)C (stereo unspecified)
IC50: > 50 µM (inactive)

COCCOC(=O)C1=C(C)OC(N)=C(C(=O)OC)C12C(=O)Nc1ccccc12 (stereo unspecified)
IC50: > 50 µM (inactive)

CCOC(=O)c1c(N)n(CCCOC(=O)c2ccco2)c2nc3ccccc3nc12
IC50: 23.7 µM

CCC(=O)Nc1cccc(NC(=S)NC(=O)c2cccs2)c1
IC50: > 50 µM (inactive)

Fc1ccc(N/N=C/C=C/c2ccccc2)c(F)c1
IC50: > 50 µM (inactive)

Cc1onc(-c2ccccc2)c1C(=O)Nc1cccc2nsnc12
IC50: 33.3 µM

NC(=O)N/N=C/c1ccccc1OC(=O)c1cc2ccccc2oc1=O
IC50: > 50 µM (inactive)

C=CCN1CCc2cccc3c2[C@H]1Cc1ccc(O)c(O)c1-3
IC50: > 50 µM (inactive)

Cc1nc2ccc(NC(=O)c3nn(CC(C)C)c(=O)c4ccccc34)cc2s1
IC50: > 50 µM (inactive)

CC(C)(C)CN1CCC(n2nccc2NC(=O)c2ccccc2Cl)CC1
IC50: > 50 µM (inactive)

CCOc1ccccc1NC1=CC(=O)CC(c2ccccc2)C1 (stereo unspecified)
IC50: > 50 µM (inactive)

O=C(Nc1cnc2ccccc2c1)c1cccc(-n2cnnn2)c1
IC50: > 50 µM (inactive)

Cc1[nH]nc2c1C(c1ccoc1)C(C#N)=C(N)O2 (stereo unspecified)
IC50: > 50 µM (inactive)

CC(=O)N1CCc2c(sc(NC(=O)CS(=O)(=O)c3ccc(F)cc3)c2C(N)=O)C1
IC50: > 50 µM (inactive)

C=CCn1c(SCCOc2ccc(OC)cc2)nnc1C(CO)NC(=O)c1ccc(OC)cc1 (stereo unspecified)
IC50: > 50 µM (inactive)

Oc1nc(Nc2ccc(F)cc2)sc1/C=C1\C=Nc2ccccc21
IC50: > 50 µM (inactive)

COc1cccc(NC(=O)CSc2ncc(S(=O)(=O)c3ccccc3)c(=O)[nH]2)c1
IC50: > 50 µM (inactive)

CN1CCCN(Cc2cccc3ccccc23)CC1
IC50: > 50 µM (inactive)

Cc1c(CC(=O)N2CCN(C(=O)C3COc4ccccc4O3)CC2)c(=O)oc2c(C)c(O)ccc12 (stereo unspecified)
IC50: 20.8 µM

CCN1CCC2(CC1)C(C#N)=C(N)Oc1c2sc2nc(C)cc(C)c12
IC50: > 50 µM (inactive)

O=C(O)c1cn(Cc2cccnc2)c(=O)c2ccccc12
IC50: > 50 µM (inactive)

COc1cc(OC)cc(C(=O)NCCNc2nc3cc(C)cc(C)c3cc2C#N)c1
IC50: 8.59 µM

Cc1nc2ccccc2c2oc(C(=O)NCCCN3CCC(C)CC3)cc12
IC50: > 50 µM (inactive)

CC(C)(C)n1cnc2cc(NCc3ccc(Br)cc3)ccc21
IC50: > 50 µM (inactive)

O=C(Nc1cccc(F)c1)c1ccc(S(=O)(=O)NCC2CCCO2)cc1 (stereo unspecified)
IC50: > 50 µM (inactive)

Cc1ccc(-c2nnn(CC(=O)N(c3ccccc3)C(C(=O)NCC3CCCO3)c3ccc(Cl)cc3)n2)cc1 (stereo unspecified)
IC50: > 50 µM (inactive)

COC(=O)c1cccnc1NC(=S)NNC(=O)c1ccccc1
IC50: > 50 µM (inactive)

CC(C)(C)c1ccc(S(=O)(=O)NCC(=O)N2CCN(C(=O)c3ccco3)CC2)cc1
IC50: > 50 µM (inactive)

Nc1ccc(C2(c3ccc(N)cc3)CN3CCC2CC3)cc1
IC50: > 50 µM (inactive)

COc1ccc(-c2nc(NC(=O)c3n[nH]c(=O)c4ccccc34)sc2C)cc1
IC50: > 50 µM (inactive)

CNS(=O)(=O)c1cc(OC)c(OC)cc1CC(=O)OC
IC50: > 50 µM (inactive)

COc1ccc(-n2c(N)c(C(=O)NCc3ccco3)c3nc4ccccc4nc32)cc1OC
IC50: 45.6 µM

COc1ccc2cc(C(C)=O)c(=O)oc2c1
IC50: 32.2 µM

CCOC(=O)c1ccc(NC(=O)CSc2nnc(C3CCCCC3)n2C)cc1
IC50: > 50 µM (inactive)

Cc1cc(C(=O)N2CCc3c([nH]c4ccccc34)C2c2c(F)cccc2Cl)no1 (stereo unspecified)
IC50: > 50 µM (inactive)

COc1cc2c(cc1OC)CN(Cc1cc(=O)oc3c(C)c(C)ccc13)CC2
IC50: > 50 µM (inactive)

CCOC(=O)c1[nH]c(C)c(C(=O)N(C)Cc2ccccc2)c1C
IC50: > 50 µM (inactive)

COc1ccc(-c2c(C)c3ccc(O)cc3oc2=O)cc1
IC50: 36.3 µM

NS(=O)(=O)c1cccc(NC(=O)CCSc2ccc(Cl)cc2)c1
IC50: > 50 µM (inactive)

Nc1c(C(=O)Nc2ccccc2)c2nc3ccccc3nc2n1CCCN1CCOCC1
IC50: 41.7 µM

Oc1ccc(Br)cc1/C=N/n1c(-c2ccccc2)n[nH]c1=S
IC50: > 50 µM (inactive)

CCOC(=O)C1=C(N)Oc2ccc3ccccc3c2C1c1ccc(O)c(OC)c1 (stereo unspecified)
IC50: > 50 µM (inactive)

O=C(Nc1nc2ccc(S(=O)(=O)N3CCCCC3)cc2s1)c1cccnc1
IC50: > 50 µM (inactive)

COc1ccc(CCNC(=O)c2cc3c(=O)n4ccccc4nc3n(CC3CCCO3)c2=N)cc1OC (stereo unspecified)
IC50: 21.3 µM

N#C/C(=C/c1ccc(N2CCOCC2)o1)C(=O)N1CCOCC1
IC50: 4.46 µM

Cc1ccc(-c2c(C(=O)N/N=C/c3ccc4c(c3)OCO4)nnn2-c2nonc2N)cc1
IC50: > 50 µM (inactive)

COc1ccc(C(=O)Oc2c(CN3CCOCC3)cc(Cl)c3cccnc23)cc1
IC50: > 50 µM (inactive)

CCn1c(=O)cc(N2CCC3(CC2)OCCO3)[nH]c1=O
IC50: > 50 µM (inactive)

COc1ccc(Oc2nc3c(C)cccn3c(=O)c2/C=C(\C#N)C(N)=O)cc1
IC50: 9.6 µM

Cc1cc(C)c(S(=O)(=O)N(C)CC(N)=O)c(C)c1
IC50: > 50 µM (inactive)

COc1ccc(-c2c(N)nnc3c2[nH]c2ccccc23)cc1OC
IC50: > 50 µM (inactive)

Cc1c(/C=N\NC(=O)C2COc3ccccc3O2)c2ccccc2n1C (stereo unspecified)
IC50: > 50 µM (inactive)

NS(=O)(=O)c1ccc(CCNC(=O)C2CCN(S(=O)(=O)c3ccc(Br)s3)CC2)cc1
IC50: > 50 µM (inactive)

CC(C)(C)Nc1c2ccccc2nc2ccccc12
IC50: > 50 µM (inactive)

COC(=O)Nc1ccc(NC(C)=O)cc1
IC50: > 50 µM (inactive)

CCCNS(=O)(=O)c1ccc2c(c1)CCCN2C(C)=O
IC50: > 50 µM (inactive)

CCN1CCN(Cc2c(O)c(Cl)cc3c(C)cc(=O)oc23)CC1
IC50: 33.4 µM

CCc1ccc(-c2nc(CSCC(=O)N3CCN(c4ccccn4)CC3)c(C)o2)cc1
IC50: > 50 µM (inactive)

Cc1cc(C)c[n+](-c2nc3ccccc3nc2[N-]S(=O)(=O)c2ccc(Br)s2)c1
IC50: 3.68 µM

CCCCCN(C(=O)CN(C)Cc1ccc(OC)cc1OC)c1c(N)n(CCCC)c(=O)[nH]c1=O
IC50: > 50 µM (inactive)

CCOC(=O)/C=C1\SCC(=O)N1CC(=O)c1ccc[nH]1
IC50: > 50 µM (inactive)

Cc1cnc(C(=O)Nc2ccc(S(=O)(=O)N(C(C)C)C(C)C)cc2)cn1
IC50: > 50 µM (inactive)

CCOC(=O)c1ccc(CNC(=O)CSc2nnc(-c3ccncc3)o2)cc1
IC50: > 50 µM (inactive)

Cc1ccc(OCc2nnc(SCC(=O)CC(=O)Nc3ccccc3)o2)cc1
IC50: > 50 µM (inactive)

COc1ccc(-c2nc(/C=C3\C(C)=Nc4ccccc43)c(O)o2)cc1
IC50: > 50 µM (inactive)

Oc1c(CN2CCN(c3ccc(F)cc3)CC2)cc(Cl)c2cccnc12
IC50: > 50 µM (inactive)

CCCC1C(C#N)=C(N)Oc2cc(C)n(C)c(=O)c21 (stereo unspecified)
IC50: > 50 µM (inactive)

CCCCNC(=O)c1c(N)n(Cc2ccc3c(c2)OCO3)c2nc3ccccc3nc12
IC50: 4.95 µM

O=C(O)/C=C/C(=O)Nc1ccc2c(c1)NC(=O)CO2
IC50: > 50 µM (inactive)

COc1ccc(C(=O)NCCNc2nc3c(C)cccc3cc2C#N)cc1
IC50: 24.4 µM

O=c1cc(N2CCN(Cc3ccccc3)CC2)[nH]c(=O)n1-c1ccc(Br)cc1
IC50: > 50 µM (inactive)

O=C(c1cccc(-c2ccccc2)c1)N1CC[C@@H](N2CCC(O)CC2)[C@H](O)C1
IC50: > 50 µM (inactive)

COc1cc2cc(C(N)=O)c(N)nc2cc1OC
IC50: 10.3 µM

CC1CN(c2cc(=O)n(-c3cccc(Br)c3)c(=O)[nH]2)CC(C)O1 (stereo unspecified)
IC50: > 50 µM (inactive)

O=[N+]([O-])c1cc(CN2CCCC2)ccc1Sc1ccc(Cl)cc1
IC50: > 50 µM (inactive)

CCN(CC)S(=O)(=O)c1ccc(OC)c(NC(=O)C2CC(=O)N(c3ccc(C)cc3)C2)c1 (stereo unspecified)
IC50: > 50 µM (inactive)

Nc1nc(CSc2nnnn2-c2ccc(Cl)cc2)nc(N2CCOCC2)n1
IC50: > 50 µM (inactive)

CN(C)/C=N/c1nc2nccc(-c3cccs3)n2n1
IC50: 38.5 µM

Cc1cccc(-n2c(O)c(/C=C/C=Nc3ccccc3)c(=O)[nH]c2=O)c1
IC50: 3.6 µM

Nc1nc(CSc2nc3ccccc3s2)nc(N2CCCCC2)n1
IC50: > 50 µM (inactive)
